# According to patent US5273991A, “Imidazole-containing compositions and methods of use thereof analogs of distamycin” (Research Corporation Technologies, Inc., priority 1992, dated 1993):
# How the values were obtained:
# [1] = test system: human chronic myelogenous leukemic K562 cells; assay: growth inhibition of K562 cells (MTT viability assay); assay type: cell-based; conditions: 1 hour drug exposure at 37° C.; 5-6 days; MTT
# Method: The ability of the compounds of the present invention to inhibit the growth of human chronic myelogenous leukemic K562 cells was determined as follows.
# The incubation was terminated by centrifugation (5 minutes, 300 g) and the cells washed once with drug-free medium.
# Following the appropriate drug treatment, the cells were transferred to 96-well microtiter plates, 10^4 cells per well, 8 wells per sample. Plates were then kept in the dark at 37° C. in a humidified atmosphere containing 5% CO2. […] Following incubation of the plates of 5-6 days (to allow control cells to increase in the number by 10 fold) 20 μL of a 5 mg/mL solution of MTT in phosphate buffered saline was added to each well and the plates further incubated for 5 h. The plates were then centrifuged for 5 minutes at 300 g and the bulk of the medium pipetted from the cell pellet leaving 10-20 μL per well. 200 μL DMSO was added to each well and the samples agitated to ensure complete mixing. The optical density was then read at a wavelength of 550 nm on a Titertek Multiscan ELISA plate reader and the dose-response curve constructed.
# MALME-3M = assay: NCI cytotoxicity screen (SRB); assay type: cell-based, human
# Method: (§1) Compounds 6, 7, 9 and 10 were tested for cytotoxic properties by the National Cancer Institute, Bethesda, Md. The anticancer drug screen utilized a panel of 60 human tumor cell lines organized into subpanels representing leukemia, melanoma, and cancers of the lung, colon, kidney, ovary and central nervous system and is described by Monks et al. (1991) Journal of the National Cancer Institute 83, 757, which is incorporated herein by reference.
# (§2) Cell lines were inoculated onto microtiter plates and preincubated for 24-28 hours. 100 μL aliquots of each compound were added to the appropriate microtiter plate wells in each of five 10-fold dilutions starting from a maximum concentration of 10^-4 M in water or DMSO. Cultures were then incubated for an additional 48 hours. Cells were then fixed in situ, followed by staining with sulforhodamine B (SRB), which binds to basic amino acids of cellular macromolecules. The solubilized stain was measured spectrophotometrically to determine relative cell growth or viability in treated and untreated cells. The monoimidazole analogs of Compounds 6, 7, 9 and 10 and the formamido analog corresponding to Compounds 7 and 10 are devoid of activity against the panel of cancer cell lines in Table III.
# HCT-116 = assay: NCI cytotoxicity screen (SRB); assay type: cell-based, human
# Method: as §1, §2
# KM20L2 = assay: NCI cytotoxicity screen (SRB); assay type: cell-based, human
# Method: as §1, §2
# Molt-4 = assay: NCI cytotoxicity screen (SRB); assay type: cell-based, human
# Method: as §1, §2
# U251 = assay: NCI cytotoxicity screen (SRB); assay type: cell-based, human
# Method: as §1, §2
# COLO-205 = assay: NCI cytotoxicity screen (SRB); assay type: cell-based, human
# Method: as §1, §2
# SW-620 = assay: NCI cytotoxicity screen (SRB); assay type: cell-based, human
# Method: as §1, §2
# HOP-62 = assay: NCI cytotoxicity screen (SRB); assay type: cell-based, human
# Method: as §1, §2
# HCC-2998 = assay: NCI cytotoxicity screen (SRB); assay type: cell-based, human
# Method: as §1, §2
# NCI-H226 = assay: NCI cytotoxicity screen (SRB); assay type: cell-based, human
# Method: as §1, §2
# K-562 = assay: NCI cytotoxicity screen (SRB); assay type: cell-based, human
# Method: as §1, §2
# KM12 = assay: NCI cytotoxicity screen (SRB); assay type: cell-based, human
# Method: as §1, §2
# SF-539 = assay: NCI cytotoxicity screen (SRB); assay type: cell-based, human
# Method: as §1, §2
# NCI-H460 = assay: NCI cytotoxicity screen (SRB); assay type: cell-based, human
# Method: as §1, §2
# A549/ATCC = assay: NCI cytotoxicity screen (SRB); assay type: cell-based, human
# Method: as §1, §2
# NCI-H322M = assay: NCI cytotoxicity screen (SRB); assay type: cell-based, human
# Method: as §1, §2
# DMS-273 = assay: NCI cytotoxicity screen (SRB); assay type: cell-based, human
# Method: as §1, §2
# HCT-15 = assay: NCI cytotoxicity screen (SRB); assay type: cell-based, human
# Method: as §1, §2
# NCI-H23 = assay: NCI cytotoxicity screen (SRB); assay type: cell-based, human
# Method: as §1, §2
# SF-295 = assay: NCI cytotoxicity screen (SRB); assay type: cell-based, human
# Method: as §1, §2
# EKVX = assay: NCI cytotoxicity screen (SRB); assay type: cell-based, human
# Method: as §1, §2
# HT29 = assay: NCI cytotoxicity screen (SRB); assay type: cell-based, human
# Method: as §1, §2
# XF498 = assay: NCI cytotoxicity screen (SRB); assay type: cell-based, human; conditions: XF498; subsequent test date
# Method: as §1, §2
# SF-268 = assay: NCI cytotoxicity screen (SRB); assay type: cell-based, human
# Method: as §1, §2
# DMS-114 = assay: NCI cytotoxicity screen (SRB); assay type: cell-based, human
# Method: as §1, §2
# DLD-1 = assay: NCI cytotoxicity screen (SRB); assay type: cell-based, human
# Method: as §1, §2
# [2] = 48 h, Non-Small Cell Lung Cancer HOP-62
# [3] = 48 h, Non-Small Cell Lung Cancer NCI-H226
# [4] = 48 h, Non-Small Cell Lung Cancer NCI-H460
# [5] = 48 h, Non-Small Cell Lung Cancer A549/ATCC
# [6] = 48 h, Non-Small Cell Lung Cancer NCI-H322M
# [7] = 48 h, Non-Small Cell Lung Cancer NCI-H23
smiles,measurement,setting,value
"CN(C)CCNC(=O)c1nc(NC(=O)c2nc(NC(=O)CCCc3ccc(N(CCCl)CCCl)cc3)cn2C)cn1C [Compound 9, N-(N',N'-dimethylaminoethyl)-1-methyl-4-{4-[4,4-bis(2-chloroethyl)aminophenyl-1-butanamido]-1-methylimidazole-2-carboxamido}imidazole-2-carboxamide]",IC50,[1],70 µM
same,IC50,"MALME-3M; 48 h, Melanoma MALME-3M",56.3 µM
same,IC50,"HCT-116; 48 h, Colon Cancer HCT-116",50.2 µM
same,IC50,"KM20L2; 48 h, Colon Cancer KM20L2",53.4 µM
same,IC50,"Molt-4; 48 h, Leukemia Molt-4",71.3 µM
same,IC50,"U251; 48 h, CNS Cancer U251",46.2 µM
same,IC50,"COLO-205; 48 h, Colon Cancer COLO-205",81.6 µM
same,IC50,"SW-620; 48 h, Colon Cancer SW-620",77.3 µM
same,IC50,HOP-62; [2],75.5 µM
same,IC50,"HCC-2998; 48 h, Colon Cancer HCC-2998",55.1 µM
same,IC50,NCI-H226; [3],47.9 µM
same,IC50,"K-562; 48 h, Leukemia K-562",54.2 µM
same,IC50,"KM12; 48 h, Colon Cancer KM12",60.9 µM
same,IC50,"SF-539; 48 h, CNS Cancer SF-539",47.9 µM
same,IC50,NCI-H460; [4],43.5 µM
same,IC50,A549/ATCC; [5],78.5 µM
same,IC50,NCI-H322M; [6],77.6 µM
same,IC50,"DMS-273; 48 h, Small Cell Lung Cancer DMS-273",42.7 µM
same,IC50,"HCT-15; 48 h, Colon Cancer HCT-15",61.3 µM
same,IC50,NCI-H23; [7],67.3 µM
same,IC50,"SF-295; 48 h, CNS Cancer SF-295",51.9 µM
"CN(C)CCNC(=O)c1nc(NC(=O)c2nc(NC(=O)c3ccc(N(CCCl)CCCl)cc3)cn2C)cn1C [Compound 6, N-(N',N'-dimethylaminoethyl)-1-methyl-4-{4-[4,4-bis(2-chloroethyl)aminobenzamido]-1-methylimidazole-2-carboxamido}imidazole-2-carboxamide]",IC50,[1],12.5 µM
same,IC50,"MALME-3M; 48 h, Melanoma MALME-3M",6.14 µM
same,IC50,"MALME-3M; MALME-3M, subsequent test date",64.3 µM
same,IC50,"HCT-116; 48 h, Colon Cancer HCT-116",6.54 µM
same,IC50,"HCT-116; HCT-116, subsequent test date",6.71 µM
same,IC50,"EKVX; 48 h, Non-Small Cell Lung Cancer EKVX",47.5 µM
same,IC50,"EKVX; EKVX, subsequent test date",38 µM
same,IC50,"KM20L2; 48 h, Colon Cancer KM20L2",6.77 µM
same,IC50,"KM20L2; KM20L2, subsequent test date",20.1 µM
same,IC50,"Molt-4; 48 h, Leukemia Molt-4",18.1 µM
same,IC50,"Molt-4; Molt-4, subsequent test date",> 100 µM
same,IC50,"HT29; 48 h, Colon Cancer HT29",5.9 µM
same,IC50,"HT29; HT29, subsequent test date",27.4 µM
same,IC50,"U251; 48 h, CNS Cancer U251",6.73 µM
same,IC50,"U251; U251, subsequent test date",5.8 µM
same,IC50,"COLO-205; 48 h, Colon Cancer COLO-205",5.88 µM
same,IC50,"COLO-205; COLO-205, subsequent test date",7.39 µM
same,IC50,"SW-620; 48 h, Colon Cancer SW-620",9.95 µM
same,IC50,"SW-620; SW-620, subsequent test date",12 µM
same,IC50,HOP-62; [2],52.3 µM
same,IC50,"HOP-62; HOP-62, subsequent test date",50.6 µM
same,IC50,XF498,25.2 µM
same,IC50,"HCC-2998; 48 h, Colon Cancer HCC-2998",33.7 µM
same,IC50,"HCC-2998; HCC-2998, subsequent test date",8.14 µM
same,IC50,"SF-268; 48 h, CNS Cancer SF-268",50 µM
same,IC50,"SF-268; SF-268, subsequent test date",9.21 µM
same,IC50,NCI-H226; [3],62.2 µM
same,IC50,"NCI-H226; NCI-H226, subsequent test date",61.3 µM
same,IC50,"K-562; 48 h, Leukemia K-562",17.2 µM
same,IC50,"K-562; K-562, subsequent test date",12.3 µM
same,IC50,"DMS-114; 48 h, Small Cell Lung Cancer DMS-114",5.83 µM
same,IC50,"DMS-114; DMS-114, subsequent test date",4.99 µM
same,IC50,"KM12; 48 h, Colon Cancer KM12",47 µM
same,IC50,"KM12; KM12, subsequent test date",31.6 µM
same,IC50,"SF-539; 48 h, CNS Cancer SF-539",6.97 µM
same,IC50,"SF-539; SF-539, subsequent test date",57.3 µM
same,IC50,NCI-H460; [4],46.1 µM
same,IC50,"NCI-H460; NCI-H460, subsequent test date",35.1 µM
same,IC50,A549/ATCC; [5],58.8 µM
same,IC50,"A549/ATCC; A549/ATCC, subsequent test date",38.4 µM
same,IC50,NCI-H322M; [6],40.5 µM
same,IC50,"NCI-H322M; NCI-H322M, subsequent test date",51.7 µM
same,IC50,"DMS-273; DMS-273, subsequent test date",31.3 µM
same,IC50,"HCT-15; 48 h, Colon Cancer HCT-15",40.5 µM
same,IC50,"HCT-15; HCT-15, subsequent test date",43.2 µM
same,IC50,NCI-H23; [7],47.1 µM
same,IC50,"NCI-H23; NCI-H23, subsequent test date",43.6 µM
same,IC50,"DLD-1; 48 h, Colon Cancer DLD-1",46.6 µM
same,IC50,"DLD-1; DLD-1, subsequent test date",55.5 µM
same,IC50,"SF-295; 48 h, CNS Cancer SF-295",43.6 µM
same,IC50,"SF-295; SF-295, subsequent test date",33.2 µM
"CN(C)CCNC(=O)c1nc(NC(=O)c2nc(NC(=O)c3nc(NCc4ccc(N(CCCl)CCCl)cc4)cn3C)cn2C)cn1C [Compound 8, N-(N',N'-dimethylaminoethyl)-1-methyl-4-{1-methyl-4-[4-(4,4-bis-(2-chloroethyl)aminobenzylamino)-1-methylimidazole-2-carboxamido]imidazole-2-carboxamido}imidazole-2-carboxamide]",IC50,[1],0.85 µM
